The values below come from patent US20160355465A1, “NOVEL MODIFIED CURCUMINS AND THEIR USES” (THE RESEARCH FOUNDATION OF STATE UNIVERSITY OF NEW YORK, priority 2011, published 2016).

The target of one experiment is MMP-9 (Homo sapiens, UniProt P14780). Nature of the experiment: fluorimetric assay of MMP activity. It counts as biochemical. The following applies: synthetic fluorescent peptide substrate Mca-Lys-Pro-Leu-Gly-Leu-Dpa-Ala-Arg-NH2.
Experiment [1] can be described thus: blood glucose of the rats of the collagen experiment. It counts as in vivo, rat. The settings on record: diabetic rats.
For another experiment, the target named is T1, MMP-7 (Homo sapiens, UniProt P09237).
T1 sequence (P09237 95-267): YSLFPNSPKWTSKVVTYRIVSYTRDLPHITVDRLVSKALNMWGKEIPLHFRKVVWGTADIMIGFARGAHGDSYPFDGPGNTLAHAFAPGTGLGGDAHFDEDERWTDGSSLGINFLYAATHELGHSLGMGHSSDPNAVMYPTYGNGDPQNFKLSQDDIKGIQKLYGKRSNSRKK
The experiment can be described thus: fluorimetric assay of MMP activity. It counts as biochemical. The following applies: synthetic fluorescent peptide substrate Mca-Lys-Pro-Leu-Gly-Leu-Dpa-Ala-Arg-NH2.

A further experiment addresses MMP-8 (Homo sapiens, UniProt P22894). The experiment can be described thus: fluorimetric assay of MMP activity. It counts as biochemical. The settings on record: synthetic fluorescent peptide substrate Mca-Lys-Pro-Leu-Gly-Leu-Dpa-Ala-Arg-NH2.
Experiment [2] deals with skin wounds. Nature of the experiment: histological and histomorphometric assessment of skin wounds. It counts as in vivo, rat. The settings on record: diabetic rats, topical 1% and systemic compared with topical 3%, 7 days. The procedure:
(§1) The following five experimental groups (n=3 rats per group) were established: Non-diabetic control rats (NDC) treated by daily application of white petrolatum jelly (“vehicle”) for 7 days, diabetic rats (D group) treated daily with vehicle alone; diabetics treated by daily topical application of either a 1% (D+1%) or a 3% (D+3%) suspension of Compound 4 in the vehicle; and diabetics treated systemically by daily oral intubation of a 1 ml suspension of Compound 4 (in carboxymethylcellulose) at a dose of 30 mg/kg over the 7-day treatment protocol (D+30 mg/kg). At the end of this time period, the circular wounds were clinically assessed by measuring diameter of the wound in millimeters, blood samples were collected, the rats were sacrificed, and skin samples collected for histological/histochemical, and biochemical assessment as described below. • 1) On day 7 after inducing wound healing, the animals were anesthetized and blood samples collected for blood glucose (one Touch Ultra Glucometer; Johnson & Johnson, New Brunswick, N.J.) and Hemoglobin A1c (A1c Now+; Bayer Health Care, Sunnyvale, Calif.) measurements. • 2) Photographs were taken for clinical observations to assess wound closure. […]

Experiment [3] can be described thus: severity of hyperglycemia (blood glucose, HbA1c) in diabetic rats. It counts as in vivo, rat. The procedure:
as §1

The target in the next experiment is T2, MMP-1 (Homo sapiens, UniProt P03956).
T2 sequence (P03956 100-469): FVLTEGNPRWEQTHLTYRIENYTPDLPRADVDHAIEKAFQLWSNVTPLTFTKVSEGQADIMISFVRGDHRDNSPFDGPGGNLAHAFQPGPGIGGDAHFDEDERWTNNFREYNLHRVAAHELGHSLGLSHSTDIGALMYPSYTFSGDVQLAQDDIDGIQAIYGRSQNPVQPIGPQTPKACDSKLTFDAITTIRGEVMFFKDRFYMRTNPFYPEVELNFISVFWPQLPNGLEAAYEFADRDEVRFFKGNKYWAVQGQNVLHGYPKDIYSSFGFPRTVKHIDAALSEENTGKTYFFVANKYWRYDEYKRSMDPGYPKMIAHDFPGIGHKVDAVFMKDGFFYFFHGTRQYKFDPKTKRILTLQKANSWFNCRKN
The experiment can be described thus: fluorimetric assay of MMP activity. It counts as biochemical. The settings on record: synthetic fluorescent peptide substrate Mca-Lys-Pro-Leu-Gly-Leu-Dpa-Ala-Arg-NH2.

The subject of experiment [4] is skin wounds. The experiment can be described thus: healing of 6 mm skin wounds in streptozotocin-diabetic rats, clinical wound diameter. It counts as in vivo, rat. The settings on record: 7 days. The procedure:
Three weeks after inducing diabetes, the back skin of all the rats was shaved and a series of 6 standard wounds per rat, each 6 mm in diameter, was made using a surgical trephine.
A finely-ground sample (0.1 g) of Compound 4 [4-(phenylaminocarbonyl)-1,7-bis(4-hydroxyphenyl)hepta-1e,6e-diene-3,5-dione] was added to petrolatum jelly (9 g) and the mixture was homogenized for 15 minutes at 25° C., then allowed to settle for 5 minutes. This procedure was repeated nine times, producing a homogeneous product having a cream-like consistency. This was then used in topical application to wounds.
The following five experimental groups (n=3 rats per group) were established: Non-diabetic control rats (NDC) treated by daily application of white petrolatum jelly (“vehicle”) for 7 days, diabetic rats (D group) treated daily with vehicle alone; diabetics treated by daily topical application of either a 1% (D+1%) or a 3% (D+3%) suspension of Compound 4 in the vehicle; and diabetics treated systemically by daily oral intubation of a 1 ml suspension of Compound 4 (in carboxymethylcellulose) at a dose of 30 mg/kg over the 7-day treatment protocol (D+30 mg/kg). At the end of this time period, the circular wounds were clinically assessed by measuring diameter of the wound in millimeters, blood samples were collected, the rats were sacrificed, and skin samples collected for histological/histochemical, and biochemical assessment as described below. • 1) On day 7 after inducing wound healing, the animals were anesthetized and blood samples collected for blood glucose (one Touch Ultra Glucometer; Johnson & Johnson, New Brunswick, N.J.) and Hemoglobin A1c (A1c Now+; Bayer Health Care, Sunnyvale, Calif.) measurements. • 2) Photographs were taken for clinical observations to assess wound closure. The % reduction of the wound surface was calculated by measuring the diameter (in millimeters) of each wound before and after the treatment protocol. • 3) Wound tissues on day 7 were excised from 3 sites per rat and pooled for biochemical analysis. […]

The next experiment concerns the target MMP-3 (Homo sapiens, UniProt P08254). Nature of the experiment: fluorimetric assay of MMP activity. Format: biochemical. The settings on record: synthetic fluorescent peptide substrate Mca-Lys-Pro-Leu-Gly-Leu-Dpa-Ala-Arg-NH2.

Usually IC50 stands for the concentration needed to halve the response being measured. A lower IC50 goes with greater potency.

Sequence of MMP-8 (P22894 101-467): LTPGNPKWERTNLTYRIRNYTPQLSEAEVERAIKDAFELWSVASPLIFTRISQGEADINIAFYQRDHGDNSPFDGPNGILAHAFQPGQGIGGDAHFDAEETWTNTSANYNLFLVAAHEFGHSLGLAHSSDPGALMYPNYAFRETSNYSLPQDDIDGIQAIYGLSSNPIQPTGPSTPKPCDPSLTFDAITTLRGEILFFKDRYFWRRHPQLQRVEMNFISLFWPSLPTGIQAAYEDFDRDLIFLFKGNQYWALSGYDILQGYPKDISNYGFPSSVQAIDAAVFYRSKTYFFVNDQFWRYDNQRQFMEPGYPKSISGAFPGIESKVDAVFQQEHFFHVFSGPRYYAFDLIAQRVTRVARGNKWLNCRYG
Sequence of MMP-9 (P14780 94-707): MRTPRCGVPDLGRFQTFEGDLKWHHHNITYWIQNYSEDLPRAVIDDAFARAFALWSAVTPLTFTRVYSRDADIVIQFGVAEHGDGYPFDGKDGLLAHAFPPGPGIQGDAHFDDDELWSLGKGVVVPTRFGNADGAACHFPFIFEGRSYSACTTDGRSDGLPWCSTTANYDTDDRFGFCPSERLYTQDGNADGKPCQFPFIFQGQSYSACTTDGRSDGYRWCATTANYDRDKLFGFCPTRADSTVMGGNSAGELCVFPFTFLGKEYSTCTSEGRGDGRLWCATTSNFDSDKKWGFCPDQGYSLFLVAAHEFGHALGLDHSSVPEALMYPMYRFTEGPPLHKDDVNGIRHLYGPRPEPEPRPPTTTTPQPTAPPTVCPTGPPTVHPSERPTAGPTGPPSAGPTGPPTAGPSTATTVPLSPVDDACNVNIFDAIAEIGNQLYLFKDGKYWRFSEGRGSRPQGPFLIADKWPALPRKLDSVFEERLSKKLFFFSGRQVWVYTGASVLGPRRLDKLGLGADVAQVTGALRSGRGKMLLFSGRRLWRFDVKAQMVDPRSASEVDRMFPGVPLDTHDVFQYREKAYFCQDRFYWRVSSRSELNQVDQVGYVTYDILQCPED
Sequence of MMP-3 (P08254 100-477): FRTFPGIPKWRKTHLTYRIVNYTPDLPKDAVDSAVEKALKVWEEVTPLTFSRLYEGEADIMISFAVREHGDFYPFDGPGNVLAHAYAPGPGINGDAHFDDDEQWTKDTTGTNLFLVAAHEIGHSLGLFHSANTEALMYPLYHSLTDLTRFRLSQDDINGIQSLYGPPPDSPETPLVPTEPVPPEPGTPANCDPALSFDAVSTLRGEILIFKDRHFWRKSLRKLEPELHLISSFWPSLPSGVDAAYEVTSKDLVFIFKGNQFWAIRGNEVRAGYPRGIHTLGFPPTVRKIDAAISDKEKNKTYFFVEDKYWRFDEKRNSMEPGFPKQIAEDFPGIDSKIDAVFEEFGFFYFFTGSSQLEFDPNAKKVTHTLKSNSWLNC

`O=C(/C=C/c1ccc(O)cc1)C(C(=O)/C=C/c1ccc(O)cc1)C(=O)Nc1ccccc1` [Compound 4, 1,7-Bis(4-hydroxyphenyl)-4-N-phenylaminocarbonylhepta-1E, 6E-dien-3,5-dione]: the half-inhibitory concentration (IC50) against MMP-9 was 8 ± 0.6 µM; at MMP-7, 5 ± 0.7 µM; on MMP-8, 4.5 ± 0.5 µM; on MMP-1 it was 69.8 ± 2 µM; against MMP-3, 2.9 ± 0.4 µM. The “Blood Glucose” value in experiment [1] (0.25% topical) is on record as 538 mg/dL; in experiment [1] (1% topical), 545 mg/dL. Also, the “histological healing of epithelium and connective tissue” value with skin wounds [2] is listed as “more effective than treatment with topical 3% Compound 4”. In addition, in experiment [3] (oral 30 mg/kg daily, 21 days), the “effect on severity of hyperglycemia” value was “did not affect the severity of hyperglycemia”. In addition, the “effect on severity of hyperglycemia (blood glucose, HbA1c)” value in experiment [3] (topical 1% or 3% or oral 30 mg/kg, 7 days) was “none of the topical or systemic treatments with Compound 4 demonstrated any effect”. In addition, the “reduction in wound diameter” value with skin wounds [4] (1% topical in petrolatum jelly, daily, non-diabetic control 30%) came out at 35%. Also, the “wound healing (in words)” value in the experiment on skin wounds [4] (3% topical, daily) is reported as “significant increase in wound healing over that of the untreated diabetic control”; with skin wounds [4] (systemic, oral 30 mg/kg daily), “returned wound healing characteristics to that seen in the non-diabetic control group”.
